The numbers were not newly measured in patent US12569529B2, “Natural combination products and methods for regulation of kidney and excretory system function” (Pure Care Pro LLC, priority 2018, dated 2026), which cites them from elsewhere.

The test system of series [1] is kidney proximal tubular cells. Conditions: kidney proximal tubular cells in culture.

On to `Cc1c(C)c2c(c(C)c1O)CC[C@@](C)(CCC[C@H](C)CCC[C@H](C)CCCC(C)C)O2` [α-tocopherol], for which the “cisplatin-induced reactive oxygen species (ROS)” value in series [1] is “decreased”. The cell viability entry in series [1] (cisplatin) was “increased”.

As for vitamin E, in the series with patients with CKD, the ADMA levels entry is on record as “reductions”.
